According to US12252524B2, “GIP/GLP1 co-agonist compounds” (Eli Lilly and Company, priority 2018, dated 2025):
Where two headings read alike, the source gives them in different places. Numbered stars: 1 amine (or outer) side, 2 acyl side, 3 side chain; on linkers, the order of the positions; unused ones are H or OH. Square brackets hold non-standard residues; d marks the D form. Side chains are listed from the residue outwards. Peptide text beside a SMILES is read from it. * marks the point of attachment. C20 diacid = O=C(O)CCCCCCCCCCCCCCCCCCC(=O)*; γGlu = O=C(O)[C@H](CCC(=O)[*:2])N[*:1]; αMeL = CC(C)C[C@](C)(N)C(=O)O; AEEA = NCCOCCOCC(=O)O; Aib = CC(C)(N)C(=O)O

Key:
[1] = target: T1, human Gcg receptor (Homo sapiens, UniProt P47871); experiment: [125I]-Glucagon binding (SPA), human Gcg receptor
T1 construct: expressed in transfected cells; crude membranes
How it was run: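 Scintillation counts are taken after membranes and WGA beads incubate and settle for 12 hours at room temperature. Buffer is 25 mM HEPES, pH 7.4, with CaCl2, MgCl2, bacitracin and Tween-20. Ki values, from four-parameter IC50 fits, are geometric means over independent days.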

[2] = target: T2, human GIP receptor (Homo sapiens, UniProt P48546); experiment: [125I]-GIP binding (SPA), human GIP receptor
T2 construct: expressed in transfected cells; crude membranes
T2 sequence (P48546 22-466): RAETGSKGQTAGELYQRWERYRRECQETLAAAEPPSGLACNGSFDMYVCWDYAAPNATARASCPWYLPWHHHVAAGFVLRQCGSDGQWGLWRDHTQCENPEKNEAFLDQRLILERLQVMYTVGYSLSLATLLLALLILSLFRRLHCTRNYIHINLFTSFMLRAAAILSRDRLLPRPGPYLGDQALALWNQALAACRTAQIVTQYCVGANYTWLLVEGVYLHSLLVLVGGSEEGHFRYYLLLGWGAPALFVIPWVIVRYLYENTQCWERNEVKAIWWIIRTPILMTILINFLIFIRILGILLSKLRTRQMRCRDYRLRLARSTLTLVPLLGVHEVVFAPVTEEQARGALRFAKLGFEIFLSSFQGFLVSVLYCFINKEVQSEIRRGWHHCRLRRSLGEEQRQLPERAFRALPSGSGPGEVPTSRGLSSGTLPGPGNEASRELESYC

[3] = target: human GLP-1 receptor (GLP-1R) (Homo sapiens, UniProt P43220); experiment: cAMP pharmacological functional assay in presence of casein, hGLP-1R; assay type: cell-based
[4] = target: T3, gastric inhibitory peptide receptor (GIPR) (Homo sapiens, UniProt P48546); experiment: cAMP pharmacological functional assay in presence of casein, hGIPR; assay type: cell-based
T3 sequence (P48546 22-466): T2 sequence (P48546 22-466)

[5] = target: T4, human GLP-1R (Homo sapiens, UniProt P43220); experiment: [125I]-GLP-1 binding (SPA), human GLP-1 receptor; set-up: expressed in transfected cells; crude membranes
How it was run: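 Ki values are geometric means with SEM over independent replicates on different days, derived from IC50s fitted by four-parameter nonlinear regression. The assay used crude cell membranes in HEPES buffer, pH 7.4, containing CaCl2, MgCl2, bacitracin and TWEEN-20.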

[6] = target: T4, human GLP-1R; experiment: GLP-1R CHO cell β-arrestin recruitment assay; assay type: cell-based; set-up: host or cells: CHO-K1 PathHunter cells, assay-ready frozen; conditions: for hGLP1R B-Arrestin2 % Top: normalized to GLP-1 maximum control
How it was run: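 Peptide-induced β-arrestin-2 recruitment measured by enzyme-fragment complementation luminescence after 90 min at 37 °C plus 60 min detection at RT.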

[7] = target: T4, human GLP-1R; experiment: GLP-1R HEK293 cell membrane [35S]GTPγS binding assay; assay type: biochemical; set-up: expressed in transfected cells; host or cells: HEK293 cells expressing human GLP-1R; membranes
How it was run: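 Agonist-driven Gαs activation read as [35S]GTPγS ([…]) binding to receptor-expressing HEK293 membranes, 30 min at room temperature, pH 7.4. Detection by anti-Gαs immunocapture on scintillation beads; EC50 derived from four-parameter logistic concentration-response fit.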

[8] = read-out: hGLcgR Ki, nM (SEM, n)
[9] = read-out: hGIPR Ki, nM (SEM, n)
[10] = HEK293 cells expressing hGLP-1R, 0.1% Casein, geometric mean, read-out: hGLP1R cAMP Rel EC50 nM (SEM, n)
[11] = HEK293 cells expressing hGIPR, 0.1% Casein, geometric mean, read-out: hGIPR cAMP Rel EC50 nM (SEM, n)
[12] = read-out: hGLP1R Ki, (nM) (SEM, n)
[13] = CHO-K1 cells, PathHunter β-arrestin-2 recruitment, 0.1% casein, read-out: hGLP1R B-Arrestin2 Rel EC50 uM (SEM, n)
[14] = HEK293 cell membranes expressing human GLP-1R, [35S]GTPγS binding, read-out: hGLP1R GTPgS Rel EC50 nM (SEM, n)

T1 sequence (P47871 26-477): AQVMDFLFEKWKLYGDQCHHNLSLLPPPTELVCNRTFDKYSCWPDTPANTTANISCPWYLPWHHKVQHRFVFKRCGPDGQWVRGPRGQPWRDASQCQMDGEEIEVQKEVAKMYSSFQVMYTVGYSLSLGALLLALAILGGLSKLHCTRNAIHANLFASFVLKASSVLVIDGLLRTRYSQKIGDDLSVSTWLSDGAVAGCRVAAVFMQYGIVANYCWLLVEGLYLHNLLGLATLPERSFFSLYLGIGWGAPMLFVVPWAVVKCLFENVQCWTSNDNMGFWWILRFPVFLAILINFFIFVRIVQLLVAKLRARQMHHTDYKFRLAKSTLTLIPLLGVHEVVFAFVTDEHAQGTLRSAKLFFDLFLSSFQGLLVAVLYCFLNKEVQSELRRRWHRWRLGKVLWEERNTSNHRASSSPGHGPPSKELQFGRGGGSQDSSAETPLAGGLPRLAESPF
Chain of human GLP-1 receptor (GLP-1R) (P43220 24-463): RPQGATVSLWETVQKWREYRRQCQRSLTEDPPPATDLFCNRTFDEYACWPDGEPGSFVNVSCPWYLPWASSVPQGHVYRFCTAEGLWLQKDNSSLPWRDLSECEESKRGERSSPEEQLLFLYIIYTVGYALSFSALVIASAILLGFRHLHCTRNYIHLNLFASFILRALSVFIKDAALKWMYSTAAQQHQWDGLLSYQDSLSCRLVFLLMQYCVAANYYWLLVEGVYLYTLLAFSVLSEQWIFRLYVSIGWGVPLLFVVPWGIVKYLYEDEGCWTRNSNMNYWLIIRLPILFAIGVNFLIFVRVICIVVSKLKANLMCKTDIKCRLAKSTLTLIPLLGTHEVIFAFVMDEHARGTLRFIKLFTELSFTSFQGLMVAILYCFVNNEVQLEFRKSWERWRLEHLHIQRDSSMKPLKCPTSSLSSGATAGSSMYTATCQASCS
T4 sequence (P43220 24-463): as above

Structure (SMILES)	Ki [1] [nM]	Ki [2] [nM]	EC50 [3] [nM]	EC50 [4] [nM]	Ki [5] [nM]	EC50 [6] [µM]	hGLP1R B-Arrestin2 % Top [6] [%]	EC50 [7] [nM]	Ki [1, 8] [nM]	Ki [2, 9] [nM]	EC50 [3, 10] [nM]	EC50 [4, 11] [nM]	Ki [5, 12] [nM]	EC50 [6, 13] [µM]	EC50 [7, 14] [nM]
CC[C@H](C)[C@H](NC(=O)[C@H](CC(C)C)NC(=O)[C@H](Cc1ccc(O)cc1)NC(=O)[C@H](CCC(=O)O)NC(=O)[C@@H](NC(=O)[C@H](Cc1ccccc1)NC(=O)[C@H](C)NC(=O)C(C)(C)NC(=O)[C@H](CCC(N)=O)NC(=O)[C@H](C)NC(=O)[C@H](CCCCNC(=O)COCCOCCNC(=O)COCCOCCNC(=O)CC[C@H](NC(=O)CCCCCCCCCCCCCCCCCCC(=O)O)C(=O)O)NC(=O)[C@H](CCCCN)NC(=O)[C@H](CC(=O)O)NC(=O)[C@H](CC(C)C)NC(=O)[C@](C)(CC(C)C)NC(=O)[C@@H](NC(=O)[C@H](CO)NC(=O)[C@H](Cc1ccc(O)cc1)NC(=O)[C@H](CC(=O)O)NC(=O)[C@H](CO)NC(=O)[C@@H](NC(=O)[C@](C)(Cc1ccccc1)NC(=O)[C@@H](NC(=O)CNC(=O)[C@H](CCC(=O)O)NC(=O)C(C)(C)NC(=O)[C@H](N)Cc1ccc(O)cc1)[C@@H](C)O)[C@@H](C)O)[C@@H](C)CC)[C@@H](C)CC)C(=O)N[C@@H](CCC(=O)O)C(=O)NCC(=O)NCC(=O)N1CCC[C@H]1C(=O)N[C@@H](CO)C(=O)N[C@@H](CO)C(=O)NCC(=O)N[C@@H](C)C(=O)N1CCC[C@H]1C(=O)N1CCC[C@H]1C(=O)N1CCC[C@H]1C(=O)N[C@@H](CO)C(N)=O [Example 335]	27.1	0.0444	0.122	0.0477	2.54	0.00531	73	0.285	–	–	–	–	–	–	–
CC[C@H](C)[C@H](NC(=O)[C@H](CC(C)C)NC(=O)[C@H](Cc1ccc(O)cc1)NC(=O)[C@H](CCC(=O)O)NC(=O)[C@@H](NC(=O)[C@H](Cc1ccccc1)NC(=O)[C@H](CCC(=O)O)NC(=O)C(C)(C)NC(=O)[C@H](CCC(N)=O)NC(=O)[C@H](C)NC(=O)[C@H](CCCCNC(=O)COCCOCCNC(=O)COCCOCCNC(=O)CC[C@H](NC(=O)CCCCCCCCCCCCCCCCCCC(=O)O)C(=O)O)NC(=O)[C@H](CCCCN)NC(=O)[C@H](CC(=O)O)NC(=O)[C@H](CC(C)C)NC(=O)[C@](C)(CC(C)C)NC(=O)[C@@H](NC(=O)[C@H](CO)NC(=O)[C@H](Cc1ccc(O)cc1)NC(=O)[C@H](CC(=O)O)NC(=O)[C@H](CO)NC(=O)[C@@H](NC(=O)[C@H](Cc1ccccc1)NC(=O)[C@@H](NC(=O)CNC(=O)[C@H](CCC(=O)O)NC(=O)C(C)(C)NC(=O)[C@@H](N)Cc1ccc(O)cc1)[C@@H](C)O)[C@@H](C)O)[C@@H](C)CC)[C@@H](C)CC)C(=O)N[C@@H](CCC(=O)O)C(=O)NCC(=O)NCC(=O)N1CCC[C@H]1C(=O)N[C@@H](CO)C(=O)N[C@@H](CO)C(=O)NCC(=O)N[C@@H](C)C(=O)N1CCC[C@H]1C(=O)N1CCC[C@H]1C(=O)N1CCC[C@H]1C(=O)N[C@@H](CO)C(N)=O [Example 333] (H-Y[Aib]EGTFTSDYSI[αMeL]LDKK([AEEA-AEEA-γGlu-C20 diacid])AQ[Aib]EFIEYLIEGGPSSGAPPPS-NH2)	–	–	–	–	–	–	58.2	–	578	0.0634	0.131	0.0492	4.25	0.0548	0.442
CC[C@H](C)[C@H](NC(=O)[C@H](CC(C)C)NC(=O)[C@H](Cc1ccc(O)cc1)NC(=O)[C@H](CCC(=O)O)NC(=O)[C@@H](NC(=O)[C@H](Cc1ccccc1)NC(=O)[C@H](CCC(=O)O)NC(=O)C(C)(C)NC(=O)[C@H](CCC(N)=O)NC(=O)[C@H](C)NC(=O)[C@H](CCCCNC(=O)COCCOCCNC(=O)CC[C@H](NC(=O)CCCCCCCCCCCCCCCCCCC(=O)O)C(=O)O)NC(=O)[C@H](CCCCN)NC(=O)[C@H](CC(=O)O)NC(=O)[C@H](CC(C)C)NC(=O)[C@](C)(CC(C)C)NC(=O)[C@@H](NC(=O)[C@H](CO)NC(=O)[C@H](Cc1ccc(O)cc1)NC(=O)[C@H](CC(=O)O)NC(=O)[C@H](CO)NC(=O)[C@@H](NC(=O)[C@H](Cc1ccccc1)NC(=O)[C@@H](NC(=O)CNC(=O)[C@H](CCC(=O)O)NC(=O)C(C)(C)NC(=O)[C@@H](N)Cc1ccc(O)cc1)[C@@H](C)O)[C@@H](C)O)[C@@H](C)CC)[C@@H](C)CC)C(=O)N[C@@H](C)C(=O)NCC(=O)NCC(=O)N1CCC[C@H]1C(=O)N[C@@H](CO)C(=O)N[C@@H](CO)C(=O)NCC(=O)N[C@@H](C)C(=O)N1CCC[C@H]1C(=O)N1CCC[C@H]1C(=O)N1CCC[C@H]1C(=O)N[C@@H](CO)C(N)=O [Example 339] (H-Y[Aib]EGTFTSDYSI[αMeL]LDKK([AEEA-γGlu-C20 diacid])AQ[Aib]EFIEYLIAGGPSSGAPPPS-NH2)	–	–	–	–	–	–	44.0	–	873	0.0388	0.0986	0.0219	2.69	0.0107	0.326
